Source: PubChem BioAssay (NCI)
“And” between values parts separate entries of the source, which are not always exact repeats. Equal values may be shown once.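 Tested at 5 concentrations; 48 h exposure; 96-well plates; endpoints linearly interpolated, else capped at highest concentration. At the GI50, growth is halved. TGI: total growth inhibition.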 Where a SMILES comes first, the peptide text is derived from it. [ ]: non-standard residue; d: D form. Ac5c = NC1(C(=O)O)CCCC1

Legend:
Experiment in all cases: NCI tumour cell line growth inhibition, 48 h
M19-MEL melanoma = tested on: M19-MEL melanoma
XF 498 CNS = tested on: XF 498 CNS
SNB-78 CNS = tested on: SNB-78 CNS
DMS 114 small cell lung = tested on: DMS 114 small cell lung
MDA-N = tested on: MDA-N
DMS 273 small cell lung = tested on: DMS 273 small cell lung
LXFL 529 NSCLC = tested on: LXFL 529 NSCLC
BT-549 breast = tested on: BT-549 breast
HOP-18 NSCLC = tested on: HOP-18 NSCLC

SMILES | TGI (M19-MEL melanoma) | TGI (SNB-78 CNS) | TGI (DMS 114 small cell lung) | TGI (DMS 273 small cell lung) | TGI (LXFL 529 NSCLC) | GI50 (BT-549 breast) | TGI (BT-549 breast) | further results
CCN(CC)CCCC(C)Nc1c2ccc(Cl)cc2nc2ccc(OC)cc12 (stereo unspecified) | 3.14 µM | 11.5 µM | 3.1 µM | 2.04 µM | 2.95 µM | 2.17 µM | 4.84 µM and 6.51 µM | TGI (XF 498 CNS): 3.12 µM; TGI (MDA-N): 3.95 µM
COc1cc(/C=C/C(=O)CC(=O)/C=C/c2cc(OC)c(OC)c(OC)c2)cc(OC)c1OC |  |  |  |  |  | 4.28 µM | 22.1 µM | 
CCOC(=O)C(N)C[S][Sn]([CH3])([CH3])[Cl] (stereo unspecified) | > 100 µM | > 100 µM | > 100 µM | > 100 µM | > 100 µM |  |  | GI50 (M19-MEL melanoma): > 89.1 µM; GI50 (XF 498 CNS): > 100 µM; TGI (XF 498 CNS): > 100 µM; GI50 (SNB-78 CNS): > 94.3 µM; GI50 (DMS 114 small cell lung): 97.4 µM; GI50 (DMS 273 small cell lung): > 100 µM; GI50 (LXFL 529 NSCLC): 28.7 µM; GI50 (HOP-18 NSCLC): > 100 µM; TGI (HOP-18 NSCLC): > 100 µM
CCN(CC)CC(O)CNc1ccc(NCC2CO2)c2c1C(=O)c1ccccc1C2=O (stereo unspecified) | 0.577 µM | 2.6 µM | 4.43 µM | 1.68 µM | 0.247 µM | 1.22 µM | 4.27 µM | GI50 (MDA-N): 0.257 µM; TGI (MDA-N): 2.31 µM; TGI (HOP-18 NSCLC): 37 µM
CC(=O)Nc1ccc(C(=O)NN2C(=O)C(Cl)C2c2ccc(Cl)cc2)cc1 (stereo unspecified) | > 100 µM |  |  |  | > 100 µM |  | > 100 µM | TGI (HOP-18 NSCLC): > 100 µM
O=c1c(Oc2ccc(F)cc2F)cc2cnc(NC3CCOCC3)nc2n1C1CCS(=O)(=O)CC1 |  |  |  |  |  | > 25 µM | > 25 µM | 
COc1cc(OC)cc(C2CC(=O)Nc3c2c(C)nn3-c2nc3ccccc3[nH]2)c1 (stereo unspecified) |  |  |  |  |  | 2.46 µM | 7.86 µM | 
CC(O)c1cccc(NCc2c3ccccc3c(=O)n3c2oc2ccccc23)c1 (stereo unspecified) |  |  |  |  |  | 3.95 µM | 14.7 µM | 
CC[C@@H]1OC2(C)CC(S(=O)(=O)c3ccccc3O)CC1O2 (stereo partly specified) | > 100 µM |  |  | > 100 µM | > 100 µM |  |  | TGI (HOP-18 NSCLC): > 100 µM
CCN1CCN(C(=O)[C@]23CC[C@@H](C)[C@H](C)[C@@H]2C2=CC[C@@H]4[C@@]5(C)C/C(=C/c6ccncc6)C(=O)C(C)(C)[C@@H]5CC[C@@]4(C)[C@]2(C)CC3)CC1 |  |  |  |  |  | 1.78 µM | 3.78 µM | 
COc1ccc(-c2onc(-c3ccc([N+](=O)[O-])cc3)c2C2=NCCN2)cc1 | > 100 µM | > 100 µM |  |  | > 100 µM |  |  | TGI (XF 498 CNS): > 100 µM; TGI (HOP-18 NSCLC): > 100 µM
C=CC1(C(=O)O)CCC(C(C)(C)C)CC1 (stereo unspecified) | > 100 µM | > 100 µM | > 100 µM | > 100 µM | > 100 µM |  |  | TGI (XF 498 CNS): > 100 µM; TGI (HOP-18 NSCLC): > 100 µM
CCOC(=O)C(Cc1c[nH]c2ccc(N)cc12)(NC(C)=O)C(=O)OCC |  |  |  |  |  | 588 µM | > 1000 µM | 
O=C(/C=C/c1ccc([N+](=O)[O-])o1)N1CCN(Cc2ccccc2)CC1 | 21.8 µM | 54.5 µM | 27.4 µM | 24 µM | 20.2 µM |  |  | TGI (XF 498 CNS): 30.4 µM; TGI (HOP-18 NSCLC): 37.1 µM
Cn1c([N+](=O)[O-])cnc1/C=C1\Oc2ccccc2C1=O |  |  |  |  |  | 0.659 µM | 4.17 µM | 
C=C1C(=O)O[C@H]2[C@H]1CC/C(CNC(=O)c1cc3cc(OC)ccc3[nH]1)=C\CC[C@@]1(C)O[C@@H]21 |  |  |  |  |  | 1.44 µM | 3.42 µM | 
COc1cc(OC)c(/C=C/S(=O)(=O)Cc2cnc(OC)c(N)c2)c(OC)c1 |  |  |  |  |  | < 0.0256 µM | > 74.6 µM | 

SMILES | TGI (M19-MEL melanoma) | TGI (SNB-78 CNS) | TGI (DMS 114 small cell lung) | TGI (DMS 273 small cell lung) | TGI (LXFL 529 NSCLC) | GI50 (BT-549 breast) | TGI (BT-549 breast) | further results
COc1cc(/C=C(\C#N)C(=O)c2ccccc2)ccc1OCc1ccccc1 | > 100 µM | > 100 µM | > 100 µM |  |  |  |  | TGI (XF 498 CNS): > 100 µM
Cc1c(NC(=O)C(C)(C)Br)c(=O)oc2c(C)c3occc(=O)c3cc12 |  |  | > 100 µM | > 100 µM | > 100 µM |  |  | TGI (XF 498 CNS): 98.6 µM
CC1C[C@@]2(c3ccccc3)C(=O)CCC[C@H]2N1 (stereo partly specified) | > 100 µM | > 100 µM | > 100 µM | > 100 µM | > 100 µM |  |  | 
O=C1c2ccccc2-c2cccc3ccc(Cc4ccc5ccccc5c4)c1c23 | > 100 µM | > 100 µM |  | > 100 µM |  |  |  | TGI (XF 498 CNS): > 100 µM
CC(C)c1ccc(C(=O)Nc2nc3ccc(O)cc3s2)cc1 |  |  |  |  |  | 2.8 µM | > 100 µM | 
CN1CCN(CCCN)CC1 |  |  |  |  |  |  | > 100 µM | TGI (MDA-N): > 100 µM
COc1cc(Cl)c2c3c(c(C(C)=O)oc13)CCC2 | > 100 µM | > 100 µM | > 100 µM | > 100 µM | > 100 µM |  |  | TGI (HOP-18 NSCLC): > 100 µM
Cc1cc(I)cc(CN(C)CCCN2CCSCC2)c1O |  |  |  |  |  | 14.8 µM | 32.6 µM | 
O=S(=O)(N/N=C/c1ccc(/C=N/NS(=O)(=O)c2ccccc2)cc1)c1ccccc1 | > 100 µM | > 100 µM | > 100 µM | > 100 µM |  |  |  | TGI (XF 498 CNS): > 100 µM; TGI (HOP-18 NSCLC): > 100 µM
O=C1Nc2ccc(C(=O)c3ccco3)cc2/C1=C/c1cc(Cl)c(O)c(Cl)c1 |  |  |  |  |  | 3.54 µM | 10.5 µM | 
O=c1c2cc(Cl)ccc2oc2ccc(OCCCCCN3CCCCC3)cc12 |  |  |  |  |  | 6.26 µM | 12.8 µM | 
CCC1(CC)C(=O)OC(=O)C1(CC)CC |  |  |  |  |  |  | > 100 µM | TGI (MDA-N): > 100 µM
Nc1ccc(N(S(=O)(=O)c2ccccc2)S(=O)(=O)c2ccccc2)c(Cl)c1 |  |  |  |  |  |  | > 100 µM | TGI (MDA-N): > 100 µM
COC(=O)CCc1cc(OC)c2c(c1)C(C(=O)OC)C(c1ccc(OC)c(OC)c1)O2 (stereo unspecified) |  |  |  |  |  |  | > 100 µM | TGI (MDA-N): > 100 µM and 23.2 µM
COc1cc(C(=O)/C(C)=C/c2c[nH]c3ccccc23)cc(OC)c1OC |  |  |  |  |  | 0.00583 µM |  | 
NNC(=O)/C(=C/c1ccc(Cl)c(Cl)c1)NC(=O)c1ccccc1 | > 100 µM | > 100 µM | > 100 µM |  | > 100 µM |  |  | TGI (XF 498 CNS): > 100 µM
NC1(C(=O)NC2(C(=O)O)CCCC2)CCCC1 (H-[Ac5c]-[Ac5c]-OH) |  |  |  |  |  |  | > 100 µM | TGI (MDA-N): > 100 µM
